For data set [1] the following is noted: cited from earlier work.
On the set-up of data set [2]: method as in Doerge at al. (2005). Particulars: male F344 rats, single dietary exposure ca. 100 µg AA/kg bw, n = 7, direct measurements; ref Doerge at al. (2005); cited from earlier work.
The conditions of data set [3]: cited from earlier work. This is another data set of the same source.
Data set [4] in a line: Parallelogram approach estimation of AUC-GA in rat. The text has this:
The parallelogram approach representing inter-species comparison of in vivo dose and the use of in vitro data is shown in Fig. 1 for the metabolic transformation of R to RX, which is referred to as the metabolism of AA to GA in the present study. This figure can be formulated to Eq. 1 as described in Methods (cf. Eq. 5), where the superscripts H and R represent the corresponding AUC or EE in human and rat, respectively.1 AUC^H−RX/AUC^R−RX=EE^H−R→RX/EE^H−RXel/EE^R−R→RX/EE^R−RXel×AUC^H−R/AUC^R−R
The in vitro data on enzyme kinetics from human and rat (Table 1), and the in vivo data on AUC of AA and of GA in rat (Table 2) were used to calculate the predictive value of AUC-GA per AUC-AA in human, according to the parallelogram approach (cf. Methods, Eq. 5). This was calculated to 0.087 (Table 3). […] It was observed that the AUC-GA in human and rat predicted by the parallelogram approach and from measured Hb adduct levels, respectively, differed with about a factor of 3 (cf. Tables 2 and 3). This difference is within the variability range of AUC-GA for respective species calculated from different in vivo studies. […]

Another data set in a line: in vitro. Particulars: for Vmax (SE), GA elimination: GA 2–50 μM, 10 min, pH 7.5, 37 °C, n = 7 × 2; for EE = Vmax/Km, GA elimination / Km: male, pH 7.5. The protocol:
As the parameters Vmax and Km were determined by the same experimental setup, the enzyme efficiency (EE) for the metabolic reactions is calculated as the ratio of Vmax to Km.
The metabolic system was similar to that we used in our earlier work[20] and is described in Supplementary information Note 1. […] The mixture was centrifuged (500 × g, 4 min) and supernatant treated as described below.
The supernatant (300 μL) obtained following centrifugation in the metabolism experiments was added to a cob(I)alamin solution (200 μL) in water. The reaction was continued under argon atmosphere for 20 min, and subsequently a gentle stream of air was passed to oxidize any reduced cobalamin. Analysis of the solution was performed by liquid chromatography tandem mass spectrometry (LC-MS/MS). The MS was operated using electrospray positive-ionization (ESI^+) and quantification performed using multiple reaction monitoring (MRM) mode. Method for preparation of cob(I)alamin solution from hydroxocobalamin and analysis of the generated alkylcobalamins, GA-Cbl from GA and PO-Cbl from PO, were similar to our earlier work[8] and are described under Supplementary information Notes 2–4.
The area under MRM peaks from GA-Cbl and PO-Cbl were measured with Analyst software version 1.5 from AB Sciex. Using calibration curve obtained for GA using inactivated S9 as matrix, the concentrations of GA in the metabolism studies were determined as described earlier by us[8]. The metabolic data was used to obtain Lineweaver-Burk plot for graphical representation of studied enzyme kinetics. Apparent values for the respective maximum velocity (Vmax) of the enzymatic conversion, the Michaelis constant (Km) and standard error were estimated by nonlinear fitting using the Hill function in Origin version 2015 (OriginLab, Northampton, MA, USA).
To human or rat liver S9 fraction (150 μL, 1–5 mg proteins) at 4 °C in a 2 mL vial with a screw-tight cap were added aqueous KCl (0.15 M, 300 μL), MgSO4 (80 mM, 150 μL), glucose-6-phosphate (50 mM, 150 μL) and NADP (40 mM, 150 μL), and the volume was made up to 1.5 mL with pH 7.5 phosphate buffer. The mixture was incubated for 5 min at 37 °C prior to the addition of the substrate.

On the set-up of data set [5]: method as in PMID 15668111. As to conditions: 37 °C; cited from earlier work.

Several values for one entry are separate records, joined by “and”; a condition that tells them apart may be missing. Equal entries are not always repeated. Where two headings read alike, the source gives them in different places.

As for `NC(=O)C1CO1` (racemic) [GA, rac-Glycidamide], the “daily Hb adduct level increment per exposure dose” value in data set [1] (Human, AA-rich food 4 days, 11 μg AA/kg bw, adducts to N-terminal valine) is 1.02 pmol/g globin per μg AA/kg bw and day. In addition, the AUC-GA is 49 nM·h/μg AA per kg bw and 49 ± 17 nM·h/μg AA per kg bw in data set [1] (Human, ca. 11 μg AA/kg bw and day through food, 4 days, n = 9, from Hb adducts); 21 nM·h/ μg AA per kg bw in data set [1] (Humans, ca. 2.5 μg AA/kg bw daily through food, 28 days, n = 9, ref Vikström et al. (2011)); 60 nM·h/ μg AA per kg bw in data set [1] (Humans, single dose in drinking water 500, 1000 and 3000 µg AA/kg bw, n = 6 males, ref Fennell et al. (2005)); 19 nM·h/ μg AA per kg bw in data set [2]; 18 nM·h/μg AA per kg bw and 18 ± 1 nM·h/μg AA per kg bw in data set [3] (Rat (male F344), 500 and 2000 μg AA/kg bw and day in drinking water, one week, n = 6, from Hb adducts); 14 nM·h/ μg AA per kg bw in data set [3] (male F344 rats, single dose 0.1 mg AA/kg bw, Hb adducts, ref Tareke et al. (2006)). The “AUC of GA” value in data set [3] (SD rat (male), subchronic intraperitoneal AA, Hb adducts on cysteine site) is reported as 16.3 nM·h per μg AA per kg bw. In addition, the “AUC-GA estimated from the parallelogram approach” value in data set [4] (Rat, predicted ratio × measured rat AUC-AA) is 48 nM·h/μg AA per kg bw. Moreover, the “ratio between species (rat-to-human) of AUC-GA per AUC-AA” value in data set [4] (from the parallelogram approach) was 16. For the same compound, the “Vmax (SE), GA elimination” value in the data set “in vitro” (Human S9) was 1.6 (0.7) nmol·mg protein^−1·min^−1; in “in vitro” (Rat S9 (male SD)), 0.26 (0.02) nmol·mg protein^−1·min^−1. In addition, the “EE of elimination of GA, human compared to rat (times faster in human)” value in the data set “in vitro” (liver S9, human vs. rat) is on record as “ca. 1.5 times”. Besides, the “EE of oxidative formation of GA, rat compared to human (times faster in rat)” value in the data set “in vitro” (liver S9, rat vs. human) is recorded as “ca. 4 times”. For the same compound, the “EE ratio of AA → GA to that of GAel, rat compared to human (times higher in rat)” value in “in vitro” (liver S9, rat vs. human) is reported as “ca. 6 times”. The “EE = Vmax/Km, GA elimination” value in “in vitro” (Sprague-Dawley, rat) was 43 μL·mg protein^−1·min^−1; in the data set “in vitro” (human), 62 μL·mg protein^−1·min^−1. The Michaelis constant (Km) was 6 µM in the data set “in vitro” (Sprague-Dawley, rat) and 26 µM in “in vitro” (human). The “half-life of hydrolysis of GA in an aqueous solution” value in data set [5] is recorded as 43 h. Further, in data set [5], the “rate of hydrolysis of GA in an aqueous solution” value is 0.016 h⁻¹.
